In patent US7250410B2, “Cyclic nucleotide phosphodiesterase inhibitors, preparation and uses thereof” (Via Pharmaceuticals, Inc., priority 2001, dated 2007):

target: PDE4; assay: Inhibition of PDE4, radioenzymatic phosphodiesterase assay; assay type: biochemical, bovine; conditions: Table 1, formula (III); 1 μM cyclic AMP
Description: A 3 g segment of bovine aortic media cut into pieces with scissors was homogenized with an ultra-turrax then a potter glass/glass homogenizer in 7 volumes by weight of buffer A containing a protease inhibitor cocktail (20 mM Tris-HCl, 0.25 M saccharose, 2 mM magnesium acetate, 1 mM dithiothreitol, 5 mM EGTA, 2000 U/ml aprotinin, 10 mg/l leupeptin and 10 mg/l soya trypsic inhibitor). The homogenizate was centrifuged at 105,000 g for 1 hour. […] The column was washed until there was no detectable absorption at 280 nm, then eluted with a linear gradient of NaCl (0–0.5 M) in buffer B. 3-ml fractions were collected and enzyme activity was determined under the conditions described hereinafter to localize the different enzymes PDE1, PDE3, PDE4 and PDE5, which were aliquoted and frozen at −80° C.
The nucleoside formed was separated from the nucleotides by anion exchange chromatography. Nucleoside radioactivity was determined by liquid scintillation counting.

SMILES | IC50 [µM]
COc1cc2c(cc1OC)C(c1ccc(-c3cccc(C(C)=O)c3)cc1)=NN(C)C(=O)C2 [IIIak, 1-[4-(3-acetylphenyl)phenyl]-7,8-dimethoxy-3-methyl-3,5-dihydro-4H-2,3-benzodiazepin-4-one] | 1.8
COc1cc2c(cc1OC)C(c1ccc(-c3cccc(C(F)(F)F)c3)cc1)=NN(C)C(=O)C2 [IIIap, 1-[4-[3-(trifluoromethyl)phenyl]phenyl]-7,8-dimethoxy-3-methyl-3,5-dihydro-4H-2,3-benzodiazepin-4-one] | 1.9
COc1cc2c(cc1OC)C(c1ccc(Br)cc1)=NN(C)C(=O)C2 [IIIan, 1-(4-bromophenyl)-7,8-dimethoxy-3-methyl-3,5-dihydro-4H-2,3-benzodiazepin-4-one] | 1.8
COc1cc2c(cc1OC)C(c1ccc(-c3ccc(Cl)cc3)cc1)=NN(C)C(=O)C2 [IIIat, 1-[4-(4-chlorophenyl)phenyl]-7,8-dimethoxy-3-methyl-3,5-dihydro-4H-2,3-benzodiazepin-4-one] | 2.3

same assay, conditions: Table 1, formula (III); compound at 10 μM

SMILES | PDE4 percentage inhibition at 10 μM [%]
CCCN1N=C(c2ccccc2)c2cc(OC)c(OC)cc2CC1=O [IIIaf, 7,8-dimethoxy-1-phenyl-3-n-propyl-3,5-dihydro-4H-2,3-benzodiazepin-4-one] | 30

same assay, conditions: Table 2, formula (XXII); 1 μM cyclic AMP

SMILES | IC50 [µM]
CCOc1cc2c(cc1OC)C(c1ccccc1)=NC(Cc1ccccc1)C(=O)N2 (stereo not drawn) [XXIIbb, 3-benzyl-8-ethoxy-7-methoxy-5-phenyl-1,3-dihydro-2H-1,4-benzodiazepin-2-one] | 15
CCOc1cc2c(cc1OCC)C(c1ccccc1)=NC(Cc1ccccc1)C(=O)N2 (stereo not drawn) [XXIIaj, 3-benzyl-7,8-diethoxy-5-phenyl-1,3-dihydro-2H-1,4-benzodiazepin-2-one] | 4.4

same assay, conditions: Table 2, formula (XXII); compound at 10 μM

SMILES | PDE4 percentage inhibition at 10 μM [%]
O=C1CN=C(c2ccccc2)c2cc3c(cc2N1)OCCO3 [XXIIah, 10-phenyl-2,3,6,8-tetrahydro-7H-[1,4]dioxino[2,3-h][1,4]benzodiazepin-7-one] | 21.2
COc1cc2c(cc1OC)C(c1ccccc1)=NC(CCSC)C(=O)N2 (stereo not drawn) [XXIIat, 7,8-dimethoxy-3-(2-methylthioethyl)-5-phenyl-1,3-dihydro-2H-1,4-benzodiazepin-2-one] | 29
COc1cc2c(cc1OC)C(c1ccccc1)=NC(Cc1ccccc1)C(=O)N2 (stereo not drawn) [XXIIap, 3-benzyl-7,8-dimethoxy-5-phenyl-1,3-dihydro-2H-1,4-benzodiazepin-2-one] | 36.10
COc1ccc2c(c1)NC(=O)CN=C2c1ccccc1 [XXIIan, 8-methoxy-5-phenyl-1,3-dihydro-2H-1,4-benzodiazepin-2-one] | 12.1
COc1cc2c(cc1OC)C(c1ccccc1)=NCC(=O)N2 [XXIIaa, 7,8-dimethoxy-5-phenyl-1,3-dihydro-2H-1,4-benzodiazepin-2-one] | 25.8

same assay, conditions: Table 3, formula (II); 1 μM cyclic AMP

SMILES | IC50 [µM]
CCN1C(=O)CN=C(c2ccc(Br)cc2)c2cc(OC)c(OC)cc21 [IIbl, 5-(4-bromophenyl)-1-ethyl-7,8-dimethoxy-1,3-dihydro-2H-1,4-benzodiazepin-2-one] | 15
CCN1C(=O)CN=C(c2ccc(C#CCNC(=O)OC(C)(C)C)cc2)c2cc(OC)c(OC)cc21 [IIbo, tert-butyl 3-[4-(1-ethyl-7,8-dimethoxy-2-oxo-2,3-dihydro-1H-1,4-benzodiazepin-5-yl)phenyl]prop-2-ynylcarbamate] | 2.92
CCN1C(=O)C(Cc2cccc(Br)c2)N=C(c2ccccc2)c2cc(OC)c(OC)cc21 (stereo not drawn) [IIcj, 3-(3-bromobenzyl)-1-ethyl-7,8-dimethoxy-5-phenyl-1,3-dihydro-2H-1,4-benzodiazepin-2-one] | 3.76
CCN1C(=O)C(Cc2ccccc2CN)N=C(c2ccccc2)c2cc(OC)c(OC)cc21 (stereo not drawn) [IIcg, 3-(2-aminomethylbenzyl)-7,8-dimethoxy-1-ethyl-5-phenyl-1,3-dihydro-2H-1,4-benzodiazepin-2-one] | 6.7
CCN1C(=O)CN=C(c2ccc(-c3ccccc3)cc2)c2cc(OC)c(OC)cc21 [IIbp, 5-(1,1′-biphenyl-4-yl)-1-ethyl-7,8-dimethoxy-1,3-dihydro-2H-1,4-benzodiazepin-2-one] | 5.74
COc1cc2c(cc1OC)N(C)C(=O)CN=C2c1ccc2cc(OCc3ccccc3)ccc2c1 [IIao, 5-(6-benzyloxy-2-naphthyl)-7,8-dimethoxy-1-methyl-1,3-dihydro-1,4-benzodiazepin-2-one] | 1.6
CCN1C(=O)C(Cc2cccc(C#N)c2)N=C(c2ccccc2)c2cc(OC)c(OC)cc21 (stereo not drawn) [IIcp, 3-[(1-ethyl-7,8-dimethoxy-2-oxo-5-phenyl-2,3-dihydro-1H-1,4-benzodiazepin-3-yl)methyl]benzonitrile] | 9.2
CCOc1cc2c(cc1OCC)N(Cc1ccccc1)C(=O)CN=C2c1ccccc1 [IIbj, 1-benzyl-7,8-diethoxy-5-phenyl-1,3-dihydro-2H-1,4-benzodiazepin-2-one] | 6.5
CCOc1cc2c(cc1OC)C(c1ccccc1)=NC(Cc1ccccc1C#N)C(=O)N2C (stereo not drawn) [IIdg, 2-[(8-ethoxy-7-methoxy-1-methyl-2-oxo-5-phenyl-2,3-dihydro-1H-1,4-benzodiazepin-3-yl)methyl]benzonitrile] | 1.1

same assay, conditions: Table 3, formula (II); compound at 10 μM

SMILES | PDE4 percentage inhibition at 10 μM [%]
COc1ccc(C2=NCC(=O)N(C)c3cc(OC)c(OC)cc32)cc1OC [IIab, 7,8-dimethoxy-5-(3,4-dimethoxyphenyl)-1-methyl-1,3-dihydro-1,4-benzodiazepin-2-one] | 38
COc1ccc2c(c1)N(C)C(=O)CN=C2c1ccccc1 [IIdm, 8-methoxy-1-methyl-5-phenyl-1,3-dihydro-2H-1,4-benzodiazepin-2-one] | 16
COc1cc2c(cc1OC)N(C)C(=O)CN=C2c1ccncc1 [IIae, 7,8-dimethoxy-1-methyl-5-(4-pyridyl)-1,3-dihydro-2H-1,4-benzodiazepin-2-one] | 3.4
CCCN1C(=O)CN=C(c2ccccc2)c2cc(OC)c(OC)cc21 [IIbe, 7,8-dimethoxy-5-phenyl-1-propyl-1,3-dihydro-2H-1,4-benzodiazepin-2-one] | 34.7
COc1cc2c(cc1OC)N(C)C(=O)CN=C2N1CCCCC1 [IIar, 7,8-dimethoxy-1-methyl-5-(piperidin-1-yl)-1,3-dihydro-1,4-benzodiazepin-2-one] | 0
CCN1C(=O)CN=C(c2ccccc2)c2cc(OC)c(OC)cc21 [IIbd, 1-ethyl-7,8-dimethoxy-5-phenyl-1,3-dihydro-2H-1,4-benzodiazepin-2-one] | 34.3
COc1cc2c(cc1OC)N(C)C(=O)CN=C2N1CCc2ccccc2C1 [IIav, 7,8-dimethoxy-1-methyl-5-(N-tetrahydro-1,2,3,4-isoquinolyl)-1,3-dihydro-2H-1,4-benzodiazepin-2-one] | 15
CCN1C(=O)C(C2(O)CCN(Cc3ccccc3)CC2)N=C(c2ccccc2)c2cc(OC)c(OC)cc21 (stereo not drawn) [IIcl, 3-(1-benzyl-4-hydroxypiperidin-4-yl)-1-ethyl-7,8-dimethoxy-5-phenyl-1,3-dihydro-2H-1,4-benzodiazepin-2-one] | 4.3
CCN1C(=O)C(CC#N)N=C(c2ccccc2)c2cc(OC)c(OC)cc21 (stereo not drawn) [IIcb, (1-ethyl-7,8-dimethoxy-2-oxo-5-phenyl-2,3-dihydro-1H-1,4-benzodiazepin-3-yl)acetonitrile] | 28.5
